In US8216580B2, “Sulfatases and methods of use thereof” (The Regents of the University of California, priority 2000, dated 2012):

Columns and labels:
Wnt signaling = assay: TCF-luciferase (TOPFlash/FOPFlash) Wnt reporter assay in HEK 293 cells co-cultured with Wnt-expressing 3T3 fibroblasts; format: cell-based, human; conditions: stably transfected HEK 293 cells co-cultured with Wnt1 or Wnt4 expressing 3T3 fibroblasts
Method: Cells were plated in 24 well plates and transfected with either 0.3 μg TOPFlash or FOPFlash and 0.01 μg Renilla control plasmid (Promega) using Fugene (Roche) according to the manufacturer's procedure. After 48 hours cells were lysed and analyzed utilizing the Dual Luciferase Reporter Assay system (Promega). Luciferase activity was normalized to control Renilla activity.
To assay HSulf influence on Wnt signaling in HEK 293 cells, HEK 293 cells were transfected with TOP/FOPFlash and Renilla control plasmid. 24 hours later the medium was changed, and Wnt1-transfected 3T3 […] fibroblasts were added. 24 hours later, Luciferase activity was measured, as described above.
Dhoot et al. (2001) supra; Ai et al. (2003) J Cell Biol 162:341-351. In order to determine if the human Sulfs affect Wnt signaling, the effect of HSulf-1 and -2, when overexpressed in a heterologous expression system on Wnt signaling, was analyzed. For this purpose, HEK 293 cells stably transfected with either HSulf-1 (HS1) or HSulf-2 (HS2) were co-cultured with Wnt1 or Wnt4 expressing 3T3 fibroblasts. Wnt activity was measured by utilizing a quantitative TCF-luciferase reporter gene (FOPFlash/TOPFlash system). van de Wetering et al. (1997) Cell 88:789-799.

[1] = tested on: chick chorioallantoic membrane (CAM); assay: Chick chorioallantoic membrane (CAM) angiogenesis assay; format: in vivo; conditions: 5×10^6 stably transfected CHO cells on CAM of 9 day embryos, 72 hrs; compared to CHO-Sulf-1 or empty vector clone
Method: Sulf-2 functions as a heparan sulfate degrading enzyme (HSDE) during tumor angiogenesis by mobilizing angiogenic factors from sequestration with HSPGs We employed the chick chorioallantoic membrane (CAM) assay, a standard angiogenesis assay. CHO cells were stably transfected with HSulf-1, HSulf-2, or the empty vector and clones were isolated. Single clones of each type were implanted on the surface of the CAM of 9 day embryos. After 72 hrs, the number of new blood vessel branches was determined under a dissecting scope.
FIG. 17. Pro-angiogenic activity of HSulf-2. 5×10^6 CHO cells were implanted on the CAM of 9-day chick embryos. The CHO cells were clones that were stably transfected with either the empty vector (clone V1), HSulf-1 (clone 9) or HSulf-2 (clone 18). After 72 hrs of further incubation, the number of blood vessel branches was counted under a dissecting microscope. 6 eggs were treated with each type of CHO cell. Means and standard errors of the means are indicated.

**Q.** Which results are given for “HSulf-2: Human SULF2, an 870 amino acid sulfatase protein, SEQ ID NO:06; expressed with C-terminal Myc-His tag”?
**A.** increase of Wnt activity (Wnt signaling): two-fold; number of new blood vessel branches [1]: dramatic response
